These results are taken from article PMC6934184, “Selective DNA-PKcs inhibition extends the therapeutic index of localized radiotherapy and chemotherapy” (The Journal of Clinical Investigation, 2019).

The target of the experiment is T1, ROS1 (Homo sapiens, UniProt P08922).
T1 construct: purchased Thermo Fisher Scientific (Life Technologies) SelectScreen
The experiment in a line: SelectScreen Z'LYTE. Type of experiment: biochemical. An outline of the steps: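 SelectScreen broad panel; activity (Z'LYTE, Adapta) plus binding formats. ATP: Km app for CSF1R Z'LYTE; 10 for CAMK1 Adapta. Readout = % per kinase.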

Structures are written as SMILES.

T1 sequence (P08922 28-2347): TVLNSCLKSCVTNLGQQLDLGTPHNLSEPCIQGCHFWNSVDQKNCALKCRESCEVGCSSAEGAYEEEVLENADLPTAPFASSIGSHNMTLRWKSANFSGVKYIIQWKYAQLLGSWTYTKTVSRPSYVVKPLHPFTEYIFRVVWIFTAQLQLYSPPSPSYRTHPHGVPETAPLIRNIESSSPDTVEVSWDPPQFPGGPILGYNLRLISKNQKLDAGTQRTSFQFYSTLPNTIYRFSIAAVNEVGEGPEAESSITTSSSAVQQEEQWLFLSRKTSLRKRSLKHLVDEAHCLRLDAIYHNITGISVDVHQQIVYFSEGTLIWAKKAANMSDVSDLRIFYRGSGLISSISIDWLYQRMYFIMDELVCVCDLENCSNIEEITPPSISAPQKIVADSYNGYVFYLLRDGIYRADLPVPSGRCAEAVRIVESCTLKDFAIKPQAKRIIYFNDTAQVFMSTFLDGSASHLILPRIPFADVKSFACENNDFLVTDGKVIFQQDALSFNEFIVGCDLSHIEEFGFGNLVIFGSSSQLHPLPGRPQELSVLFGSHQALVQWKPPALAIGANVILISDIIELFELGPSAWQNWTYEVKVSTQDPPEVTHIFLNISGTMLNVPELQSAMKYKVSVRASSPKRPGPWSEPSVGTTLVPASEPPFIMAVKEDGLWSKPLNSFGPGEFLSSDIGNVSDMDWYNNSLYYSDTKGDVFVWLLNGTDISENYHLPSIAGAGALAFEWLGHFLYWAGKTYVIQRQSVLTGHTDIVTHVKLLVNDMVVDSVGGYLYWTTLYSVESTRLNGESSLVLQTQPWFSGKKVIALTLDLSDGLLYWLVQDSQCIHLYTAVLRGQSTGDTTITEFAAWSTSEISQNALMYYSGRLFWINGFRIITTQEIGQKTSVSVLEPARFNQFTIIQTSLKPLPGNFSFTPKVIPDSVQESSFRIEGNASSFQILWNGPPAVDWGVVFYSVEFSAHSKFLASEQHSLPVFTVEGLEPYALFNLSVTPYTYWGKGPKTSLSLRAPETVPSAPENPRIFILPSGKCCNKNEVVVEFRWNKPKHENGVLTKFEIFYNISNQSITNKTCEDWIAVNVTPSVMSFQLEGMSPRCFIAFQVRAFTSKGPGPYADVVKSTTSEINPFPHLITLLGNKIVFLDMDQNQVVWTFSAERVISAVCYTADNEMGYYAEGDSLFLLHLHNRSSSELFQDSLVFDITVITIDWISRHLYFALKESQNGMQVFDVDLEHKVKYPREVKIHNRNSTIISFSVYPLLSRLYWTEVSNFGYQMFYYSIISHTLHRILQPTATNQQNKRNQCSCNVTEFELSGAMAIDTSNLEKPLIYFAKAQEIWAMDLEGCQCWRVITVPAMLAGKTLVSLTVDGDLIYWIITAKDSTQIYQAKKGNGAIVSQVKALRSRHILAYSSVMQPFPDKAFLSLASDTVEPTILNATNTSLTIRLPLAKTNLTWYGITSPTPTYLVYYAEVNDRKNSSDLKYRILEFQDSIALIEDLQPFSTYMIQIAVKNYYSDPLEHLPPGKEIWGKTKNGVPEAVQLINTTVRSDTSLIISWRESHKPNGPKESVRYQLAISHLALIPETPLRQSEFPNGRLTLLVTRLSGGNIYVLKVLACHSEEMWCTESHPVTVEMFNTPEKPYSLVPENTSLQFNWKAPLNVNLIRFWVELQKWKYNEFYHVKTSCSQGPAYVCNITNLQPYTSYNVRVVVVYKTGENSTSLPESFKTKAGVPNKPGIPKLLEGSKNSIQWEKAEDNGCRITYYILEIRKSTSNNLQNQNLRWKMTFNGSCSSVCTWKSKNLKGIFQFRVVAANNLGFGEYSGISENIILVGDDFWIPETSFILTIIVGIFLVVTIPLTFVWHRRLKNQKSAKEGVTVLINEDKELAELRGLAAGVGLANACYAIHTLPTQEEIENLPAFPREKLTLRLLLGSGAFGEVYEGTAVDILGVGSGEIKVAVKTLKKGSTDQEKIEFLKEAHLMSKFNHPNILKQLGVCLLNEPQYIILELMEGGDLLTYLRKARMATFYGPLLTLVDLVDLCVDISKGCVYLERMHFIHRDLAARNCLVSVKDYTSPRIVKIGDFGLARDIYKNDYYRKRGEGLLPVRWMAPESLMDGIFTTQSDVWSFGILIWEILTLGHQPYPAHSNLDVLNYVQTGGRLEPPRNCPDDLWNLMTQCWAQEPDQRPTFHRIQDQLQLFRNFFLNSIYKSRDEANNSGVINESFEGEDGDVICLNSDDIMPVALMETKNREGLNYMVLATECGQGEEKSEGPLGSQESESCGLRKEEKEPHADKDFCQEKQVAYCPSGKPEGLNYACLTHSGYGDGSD

Consider `CN(C(=O)CN1CCOCC1)c1ccc2sc3c(-c4cccc5c(=O)cc(N6CC7CCC(C6)O7)oc45)cccc3c2c1` [NU5455], for which the inhibition at 1 µM was determined as 8%.

The inhibition is the share of the control response that was lost under treatment.
